Among the data in US11208412B2 (DAEGU-GYEONGBUK MEDICAL INNOVATION FOUNDATION, priority 2017, dated 2021) are remaining binding values, retold here.

Common to all, as to assay: Kinase selectivity, DiscoverX scanMAX Kinase assay panel (% control)
Holding throughout (assay type): binding

In assay [1] the target is T1, kinases of the scanMAX Kinase assay panel (Homo sapiens, UniProt P41743).
T1 construct: purchased DiscoverX Co. (contract measurement) scanMAX Kinase assay panel
T1 sequence (P41743 1-596): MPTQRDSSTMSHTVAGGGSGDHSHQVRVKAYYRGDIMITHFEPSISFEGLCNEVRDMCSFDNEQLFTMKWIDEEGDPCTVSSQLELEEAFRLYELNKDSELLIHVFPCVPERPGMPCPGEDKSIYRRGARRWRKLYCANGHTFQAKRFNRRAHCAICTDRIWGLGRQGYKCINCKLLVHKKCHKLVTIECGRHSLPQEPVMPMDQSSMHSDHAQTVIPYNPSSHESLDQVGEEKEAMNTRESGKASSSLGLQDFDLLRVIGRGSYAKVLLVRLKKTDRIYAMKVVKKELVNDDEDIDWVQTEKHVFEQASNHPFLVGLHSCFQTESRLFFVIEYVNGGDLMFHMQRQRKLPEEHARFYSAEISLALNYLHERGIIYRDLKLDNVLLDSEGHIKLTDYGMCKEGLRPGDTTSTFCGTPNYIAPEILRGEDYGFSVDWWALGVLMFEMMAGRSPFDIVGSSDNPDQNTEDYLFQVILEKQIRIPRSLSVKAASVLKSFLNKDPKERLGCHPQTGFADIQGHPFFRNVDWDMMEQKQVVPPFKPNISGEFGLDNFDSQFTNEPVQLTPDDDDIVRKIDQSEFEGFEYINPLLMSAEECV
The following applies: PRKCI; 1 uM. An outline of the steps:
(§1)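 A 1 uM DMSO solution of compound was applied across the panel kinases, and results were expressed as % control relative to DMSO (100%) and a positive control (0%).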

The target in assay [2] is T2, kinases of the scanMAX Kinase assay panel (Homo sapiens, UniProt Q9UL54).
T2 construct: purchased DiscoverX Co. (contract measurement) scanMAX Kinase assay panel
T2 sequence (Q9UL54 1-1235): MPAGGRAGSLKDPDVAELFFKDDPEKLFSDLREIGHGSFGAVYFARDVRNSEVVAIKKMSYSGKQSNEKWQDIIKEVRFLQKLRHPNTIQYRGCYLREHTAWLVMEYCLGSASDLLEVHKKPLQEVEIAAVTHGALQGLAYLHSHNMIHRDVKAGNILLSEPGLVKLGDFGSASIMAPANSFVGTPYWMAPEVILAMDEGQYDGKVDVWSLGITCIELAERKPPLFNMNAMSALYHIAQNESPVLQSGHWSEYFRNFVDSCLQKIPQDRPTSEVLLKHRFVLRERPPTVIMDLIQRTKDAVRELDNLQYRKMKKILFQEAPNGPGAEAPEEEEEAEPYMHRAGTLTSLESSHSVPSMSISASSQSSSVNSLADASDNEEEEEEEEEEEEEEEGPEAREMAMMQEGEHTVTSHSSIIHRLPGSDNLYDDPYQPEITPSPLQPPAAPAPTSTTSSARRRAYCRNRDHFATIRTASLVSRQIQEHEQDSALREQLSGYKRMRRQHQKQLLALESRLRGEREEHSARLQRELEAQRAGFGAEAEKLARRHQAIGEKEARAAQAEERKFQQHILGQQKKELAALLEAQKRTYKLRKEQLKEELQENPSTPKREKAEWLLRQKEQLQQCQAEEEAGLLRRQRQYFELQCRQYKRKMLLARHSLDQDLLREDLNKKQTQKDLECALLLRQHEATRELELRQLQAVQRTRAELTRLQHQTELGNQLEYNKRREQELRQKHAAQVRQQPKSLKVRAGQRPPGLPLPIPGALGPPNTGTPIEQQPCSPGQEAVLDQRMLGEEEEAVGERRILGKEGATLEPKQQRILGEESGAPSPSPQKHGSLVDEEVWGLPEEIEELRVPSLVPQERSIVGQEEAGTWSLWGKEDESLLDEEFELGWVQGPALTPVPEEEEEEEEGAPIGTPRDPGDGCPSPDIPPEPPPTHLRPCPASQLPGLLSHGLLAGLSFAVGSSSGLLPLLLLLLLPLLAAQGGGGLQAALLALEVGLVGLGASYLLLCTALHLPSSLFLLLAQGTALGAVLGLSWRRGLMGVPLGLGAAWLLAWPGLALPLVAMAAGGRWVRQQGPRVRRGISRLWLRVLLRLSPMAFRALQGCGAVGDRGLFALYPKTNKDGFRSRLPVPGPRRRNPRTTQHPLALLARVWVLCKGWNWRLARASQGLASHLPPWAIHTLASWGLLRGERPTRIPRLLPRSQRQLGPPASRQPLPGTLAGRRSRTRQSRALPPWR
The following applies: kinase TAOK2; 1 uM in DMSO. In a few lines: as §1

Assay [3] addresses T3, kinases of the scanMAX Kinase assay panel (Homo sapiens, UniProt P00533, DEL746-750).
T3 construct: purchased DiscoverX Co. (contract measurement) scanMAX Kinase assay panel
The following applies: EGFR(E746-A750de1); 1 uM. An outline of the steps: as §1

Assay [4] deals with T4, kinases of the scanMAX Kinase assay panel (Homo sapiens, UniProt P21860).
T4 construct: purchased DiscoverX Co. (contract measurement) scanMAX Kinase assay panel
T4 sequence (P21860 20-1342): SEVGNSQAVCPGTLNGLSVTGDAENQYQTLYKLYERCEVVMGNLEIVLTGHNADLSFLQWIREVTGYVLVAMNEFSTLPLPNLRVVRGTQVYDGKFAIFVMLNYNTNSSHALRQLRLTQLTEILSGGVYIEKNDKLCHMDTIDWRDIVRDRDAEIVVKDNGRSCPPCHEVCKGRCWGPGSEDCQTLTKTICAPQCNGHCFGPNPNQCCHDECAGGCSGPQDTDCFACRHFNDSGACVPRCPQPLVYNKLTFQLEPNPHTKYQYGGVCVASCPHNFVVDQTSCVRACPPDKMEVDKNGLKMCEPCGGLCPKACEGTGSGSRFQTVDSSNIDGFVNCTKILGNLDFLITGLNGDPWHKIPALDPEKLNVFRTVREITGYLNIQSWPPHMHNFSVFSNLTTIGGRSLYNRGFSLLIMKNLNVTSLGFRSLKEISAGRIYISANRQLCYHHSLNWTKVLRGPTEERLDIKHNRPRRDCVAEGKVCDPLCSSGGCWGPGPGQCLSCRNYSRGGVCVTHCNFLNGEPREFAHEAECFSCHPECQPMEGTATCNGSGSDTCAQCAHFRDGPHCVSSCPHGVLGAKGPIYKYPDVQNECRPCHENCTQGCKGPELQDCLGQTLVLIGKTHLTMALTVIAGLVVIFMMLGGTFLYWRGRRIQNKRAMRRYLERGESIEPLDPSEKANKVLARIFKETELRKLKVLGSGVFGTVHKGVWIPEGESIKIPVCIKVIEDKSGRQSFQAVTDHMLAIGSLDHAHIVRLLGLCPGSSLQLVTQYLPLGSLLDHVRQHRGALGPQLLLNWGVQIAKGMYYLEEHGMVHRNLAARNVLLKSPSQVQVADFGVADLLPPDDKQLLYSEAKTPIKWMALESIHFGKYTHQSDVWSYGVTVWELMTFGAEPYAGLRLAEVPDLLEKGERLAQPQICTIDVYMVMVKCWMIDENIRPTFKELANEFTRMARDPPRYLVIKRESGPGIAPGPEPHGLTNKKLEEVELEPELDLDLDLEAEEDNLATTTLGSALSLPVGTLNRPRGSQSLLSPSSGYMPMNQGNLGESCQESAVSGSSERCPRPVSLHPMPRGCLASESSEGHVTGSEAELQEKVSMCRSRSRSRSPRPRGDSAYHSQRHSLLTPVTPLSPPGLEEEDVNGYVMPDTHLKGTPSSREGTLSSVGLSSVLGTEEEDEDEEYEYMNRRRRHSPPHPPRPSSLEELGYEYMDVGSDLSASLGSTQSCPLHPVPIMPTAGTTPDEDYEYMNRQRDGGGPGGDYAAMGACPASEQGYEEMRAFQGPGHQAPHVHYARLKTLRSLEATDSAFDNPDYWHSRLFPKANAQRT
The settings on record: ERBB3; 1 uM. In a few lines:
as §1

T3 sequence (P00533 with tags, fused parts or gaps DEL746-750): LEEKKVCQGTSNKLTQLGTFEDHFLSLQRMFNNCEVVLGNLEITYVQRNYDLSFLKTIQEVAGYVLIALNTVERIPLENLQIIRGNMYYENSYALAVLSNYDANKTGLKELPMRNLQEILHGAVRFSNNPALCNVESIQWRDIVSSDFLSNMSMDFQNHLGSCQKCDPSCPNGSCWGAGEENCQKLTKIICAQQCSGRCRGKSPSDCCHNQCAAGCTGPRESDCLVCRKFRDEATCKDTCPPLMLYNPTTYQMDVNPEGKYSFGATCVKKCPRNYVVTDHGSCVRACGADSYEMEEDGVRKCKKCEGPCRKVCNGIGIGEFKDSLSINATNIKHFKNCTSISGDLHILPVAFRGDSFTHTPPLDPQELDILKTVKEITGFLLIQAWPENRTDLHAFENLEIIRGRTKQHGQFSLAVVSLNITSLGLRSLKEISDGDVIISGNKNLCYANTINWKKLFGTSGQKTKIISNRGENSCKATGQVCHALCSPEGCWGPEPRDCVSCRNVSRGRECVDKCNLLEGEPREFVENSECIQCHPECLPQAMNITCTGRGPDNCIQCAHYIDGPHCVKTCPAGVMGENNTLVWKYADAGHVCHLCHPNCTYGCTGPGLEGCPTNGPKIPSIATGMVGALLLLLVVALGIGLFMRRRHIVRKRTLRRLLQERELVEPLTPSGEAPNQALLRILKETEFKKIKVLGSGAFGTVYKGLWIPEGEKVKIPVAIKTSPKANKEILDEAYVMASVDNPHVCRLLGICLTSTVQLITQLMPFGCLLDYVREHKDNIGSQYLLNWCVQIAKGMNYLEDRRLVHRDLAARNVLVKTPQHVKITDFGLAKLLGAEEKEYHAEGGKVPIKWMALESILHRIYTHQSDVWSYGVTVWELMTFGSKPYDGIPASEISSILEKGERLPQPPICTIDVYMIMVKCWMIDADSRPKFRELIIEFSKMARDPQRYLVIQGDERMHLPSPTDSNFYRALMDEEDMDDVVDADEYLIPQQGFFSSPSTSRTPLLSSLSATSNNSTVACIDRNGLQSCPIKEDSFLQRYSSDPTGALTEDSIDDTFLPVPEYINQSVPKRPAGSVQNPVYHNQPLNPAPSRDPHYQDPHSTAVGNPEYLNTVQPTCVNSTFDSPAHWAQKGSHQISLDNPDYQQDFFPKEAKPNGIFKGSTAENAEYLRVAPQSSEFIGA

For the molecule `CC1(Nc2nc(Nc3cnn([C@H]4CCN(C5COC5)C[C@@H]4F)c3Cl)nc3[nH]cc(C#N)c23)CC1` [Example 52, 2-((5-chloro-1-((3S,4S)-3-fluoro-1-(oxetane-3-yl)piperidine-4-yl)-1H-pyrazole-4-yl)amino)((1-methylcyclopropyl)amino)-7H-pyrrolo[2,3-d]pyrimidine-5-carbonitrile], the remaining binding at 1 µM in assay [1] stood at 89%; in assay [2], 40%; in assay [3] it was 59%; in assay [4], 100%.

Take `CCNc1nc(Nc2ccc(C(=O)N3CCC(N4CCOCC4)CC3)cc2OC)nc2[nH]cc(C(F)(F)F)c12` [Example 104, (4-((4-(ethylamino)-5-(trifluoromethyl)-7H-pyrrolo[2,3-d]pyrimidine-2-yl)amino)-3-methoxyphenyl)(4-morpholinopiperidine-1-yl)methanone]: the remaining binding at 1 µM was 53% in assay [1], 87% in assay [2], 100% in assay [3] and 100% in assay [4].

As to `CNc1nc(Nc2ccc(C(=O)N3CCOCC3)cc2OC)nc2[nH]cc(C#N)c12` [Example 1, 2-((2-methoxy-4-(morpholine-4-carbonyl)phenyl)amino)-4-(methylamino)-7H-pyrrolo[2,3-d]pyrimidine-5-carbonitrile], the remaining binding at 1 µM in assay [1] worked out at 96%; in assay [2], 78%; in assay [3], 97%; in assay [4], 68%.
